Reference: patent US12570639B2, “Tetrahydroquinoline derivative and medicinal use thereof” (Toray Industries, Inc., priority 2020, dated 2026)

tested on: Human fibrosarcoma cells (HT-1080 cells); assay: In vitro inhibitory action against ferroptosis (Erastin-induced cell death, Cell Counting Kit-8); assay type: cell-based; conditions: evaluation concentration 30 μmol/L, Erastin 3 μmol/L, 24 hours
Procedure: The inhibitory action against ferroptosis of the tetrahydroquinoline derivative (I) or a pharmaceutically acceptable salt thereof was evaluated with Human fibrosarcoma cells (HT-1080 cells), by using, as an index, the inhibitory action against the cell death induced by treatment with a ferroptosis inducer, Erastin.
HT-1080 cells (ATCC) were cultured in a mixture (hereinafter referred to as vehicle) composed of DMEM/F12 (Thermo Fisher Scientific, Inc.), a final concentration of 10% fetal bovine serum (Thermo Fisher Scientific, Inc.), and a final concentration of 1% penicillin-streptomycin solution (Nacalai Tesque, Inc.). Cells were seeded into 96-well plates (Corning Inc.) at 5×10^4 cells/well and cultured overnight.
A test compound was dissolved in DMSO, and the resulting solution was diluted in the vehicle to a final concentration of 1% DMSO and then used. […] Thirty minutes after the addition of the test compound, Erastin (Cayman Chemical Co.) diluted in the vehicle at a final concentration of 3 μmol/L was added to wells. The wells added with the test compound and Erastin were grouped as “test compound,” and the wells added with no test compound and no Erastin were grouped as “background,” and the wells added with no test compound but with Erastin were grouped as “control.” Twenty-four hours after the addition of Erastin, 5 μL of Cell Counting Kit-8 (Dojindo Laboratories) was added to each well and incubated for 4 hours, and the absorbance at 450 nm was then measured for each well (N=2). […] Ferroptosis inhibition rate (%)=[1−{(Average absorbance value at 450 nm measured when a test compound is added)−(Average absorbance value at 450 nm measured in the background)}/{(Average absorbance value at 450 nm measured in the control)−(Average absorbance value at 450 nm measured in the background)}]×100 Equation 1

First: 7-fluoro-(1H-pyrazol-4-yl)-1,2,3,4-tetrahydroquinoline [Example 140]
Second: COC(=O)[C@@H]1C[C@H](c2ccccc2)Nc2ccccc21 (relative stereo) [Example 88, methyl (2R*, 4R*)-2-phenyl-1,2,3,4-tetrahydroquinolin-4-carboxylate]
The “Ferroptosis inhibition rate (%)” value of the first is lower: 72.81% for the first, 97.70% for the second.

Compared with `OC[C@@H]1C[C@H](c2ccccc2)Nc2ccccc21` (relative stereo) [Example 89, ((2R*,4R*)-2-phenyl-1,2,3,4-tetrahydroquinolin-4-yl)methanol], `C[C@@H]1C[C@H](c2ccccc2)Nc2ccccc21` (relative stereo) [Example 90, (2R*,4R*)-4-methyl-2-phenyl-1,2,3,4-tetrahydroquinoline] is higher in “Ferroptosis inhibition rate (%)” value: 99.12% for the first, 102.4% for the second.

In the case of `c1ccc2c(c1)CCC(c1cn[nH]c1)N2` (centres unmarked) [Example 12, 2-(1H-pyrazol-4-yl)-1,2,3,4-tetrahydroquinoline], the “Ferroptosis inhibition rate (%)” value is reported as 110.9%.
First: c1ccc2c(c1)CCC(c1cn[nH]c1)N2 (centres unmarked) [Example 13, 2-(1H-pyrazol-4-yl)-1,2,3,4-tetrahydroquinoline]
Second: COc1ccc(C2CCc3ccccc3N2)cn1 (centres unmarked) [Example 15, 2-(6-methoxypyridin-3-yl)-1,2,3,4-tetrahydroquinoline]
The “Ferroptosis inhibition rate (%)” value of the first is higher: 119.6% for the first, 89.22% for the second.

Going from `CC(C)(O)c1ccc(C2CCc3ccccc3N2)cc1` (centres unmarked) [Example 18, 2-(4-(1,2,3,4-tetrahydroquinolin-2-yl)phenyl)propan-2-ol] to `NS(=O)(=O)c1cccc(C2CCc3ccccc3N2)c1` (centres unmarked) [Example 19, 3-(1,2,3,4-tetrahydroquinolin-2-yl)benzenesulfonamide], the “Ferroptosis inhibition rate (%)” value rises from 66.52% to 100.5%.

First: NS(=O)(=O)c1ccccc1C1CCc2ccccc2N1 (centres unmarked) [Example 20, 2-(1,2,3,4-tetrahydroquinolin-2-yl)benzenesulfonamide]
Second: c1ccc2c(c1)CCC(c1cc[nH]n1)N2 (centres unmarked) [Example 22, 2-(1H-pyrazol-3-yl)-1,2,3,4-tetrahydroquinoline]
The “Ferroptosis inhibition rate (%)” value of the first is lower: 95.88% for the first, 103.2% for the second.

same assay, conditions: evaluation concentration 50 μmol/L, Erastin 3 μmol/L, 24 hours

Compared with `COc1ccc(C2CCc3ccccc3N2)cc1` (centres unmarked) [Example 4, 2-(4-methoxyphenyl)-1,2,3,4-tetrahydroquinoline], `COc1cccc(C2CCc3ccccc3N2)c1` (centres unmarked) [Example 5, 2-(3-methoxyphenyl)-1,2,3,4-tetrahydroquinoline] is higher in “Ferroptosis inhibition rate (%)” value: 99.10% for the first, 99.69% for the second.

Compared with `COc1ccccc1C1CCc2ccccc2N1` (centres unmarked) [Example 6, 2-(2-methoxyphenyl)-1,2,3,4-tetrahydroquinoline], `FC(F)(F)c1ccccc1C1CCc2ccccc2N1` (centres unmarked) [Example 10, 2-(2-(trifluoromethyl)phenyl)-1,2,3,4-tetrahydroquinoline] is higher in “Ferroptosis inhibition rate (%)” value: 90.22% for the first, 103.9% for the second.

First: COc1ccc2c(c1)CCC(c1ccc3c(c1)OCO3)N2 (centres unmarked) [Example 7, 2-(benzo[d][1,3]dioxol-5-yl)-6-methoxy-1,2,3,4-tetrahydro-quinoline]
Second: c1ccc2c(c1)CCC(c1ccc3c(c1)OCO3)N2 (centres unmarked) [Example 9, 2-(benzo[d][1,3]dioxol-5-yl)-1,2,3,4-tetrahydroquinoline]
The “Ferroptosis inhibition rate (%)” value of the first is higher: 93.95% for the first, 88.84% for the second.

Going from `COc1ccc(C2CCc3ccc(OC)cc3N2)cc1` (centres unmarked) [Example 8, 7-methoxy-2-(4-methoxyphenyl)-1,2,3,4-tetrahydroquinoline] to `COC(=O)c1ccc(C2CCc3ccccc3N2)cc1` (centres unmarked) [Example 17, methyl 4-(1,2,3,4-tetrahydroquinolin-2-yl)benzoate], the “Ferroptosis inhibition rate (%)” value falls from 100.6% to 98.12%.

In the case of `Cn1cc(C2CCc3ccccc3N2)cn1` (centres unmarked) [Example 14, 2-(1-methyl-1H-pyrazol-4-yl)-1,2,3,4-tetrahydroquinoline], the “Ferroptosis inhibition rate (%)” value is reported as 97.39%.
